Measurements reported in PubChem BioAssay (NCI).
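Five compound concentrations were applied to cells in 96-well plates for 48 hours; endpoints were derived by simple linear interpolation of the resulting dose-response curve. Definition used: TGI = concentration required for complete inhibition of growth.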

How the values were obtained:
Assay in all cases: NCI anticancer screen, dose series, 48 h
HOP-92 NSCLC = tested on: HOP-92 NSCLC
SN12C renal = tested on: SN12C renal
M19-MEL melanoma = tested on: M19-MEL melanoma
K-562 leukemia = tested on: K-562 leukemia
HOP-62 NSCLC = tested on: HOP-62 NSCLC
UACC-257 melanoma = tested on: UACC-257 melanoma
SNB-78 CNS = tested on: SNB-78 CNS
COLO 205 colon = tested on: COLO 205 colon
NCI-H226 lung = tested on: NCI-H226 lung
HCT-116 colon = tested on: HCT-116 colon
SW-620 colon = tested on: SW-620 colon
DMS 114 small cell lung = tested on: DMS 114 small cell lung
IGROV1 ovarian = tested on: IGROV1 ovarian
HT29 colon = tested on: HT29 colon
DLD-1 colon = tested on: DLD-1 colon
HCC-2998 colon = tested on: HCC-2998 colon
KM12 colon = tested on: KM12 colon
SR leukemia = tested on: SR leukemia
KM20L2 colon = tested on: KM20L2 colon
RXF 393 renal = tested on: RXF 393 renal
SF-295 CNS = tested on: SF-295 CNS
M14 melanoma = tested on: M14 melanoma
OVCAR-3 ovarian = tested on: OVCAR-3 ovarian
OVCAR-8 ovarian = tested on: OVCAR-8 ovarian
LOX IMVI melanoma = tested on: LOX IMVI melanoma
OVCAR-4 ovarian = tested on: OVCAR-4 ovarian
HL-60(TB) leukemia = tested on: HL-60(TB) leukemia
ACHN renal = tested on: ACHN renal
TK-10 renal = tested on: TK-10 renal
NCI-H23 lung = tested on: NCI-H23 lung
U251 CNS = tested on: U251 CNS
SF-268 CNS = tested on: SF-268 CNS
A549 NSCLC = tested on: A549 NSCLC
DMS 273 small cell lung = tested on: DMS 273 small cell lung
SNB-19 CNS = tested on: SNB-19 CNS
HOP-18 NSCLC = tested on: HOP-18 NSCLC
UO-31 renal = tested on: UO-31 renal
MOLT-4 leukemia = tested on: MOLT-4 leukemia
EKVX NSCLC = tested on: EKVX NSCLC
XF 498 CNS = tested on: XF 498 CNS
RPMI-8226 leukemia = tested on: RPMI-8226 leukemia
786-0 renal = tested on: 786-0 renal
NCI-H460 lung = tested on: NCI-H460 lung
SK-MEL-2 melanoma = tested on: SK-MEL-2 melanoma
SK-OV-3 ovarian = tested on: SK-OV-3 ovarian
MALME-3M melanoma = tested on: MALME-3M melanoma
SF-539 CNS = tested on: SF-539 CNS
OVCAR-5 ovarian = tested on: OVCAR-5 ovarian
SK-MEL-28 melanoma = tested on: SK-MEL-28 melanoma
CCRF-CEM leukemia = tested on: CCRF-CEM leukemia
A498 renal = tested on: A498 renal
HCT-15 colon = tested on: HCT-15 colon
NCI-H522 lung = tested on: NCI-H522 lung
LXFL 529 NSCLC = tested on: LXFL 529 NSCLC
SNB-75 CNS = tested on: SNB-75 CNS
SK-MEL-5 melanoma = tested on: SK-MEL-5 melanoma
CAKI-1 renal = tested on: CAKI-1 renal

Nc1ncnc2c1ncn2C1CC(OC2CCCCO2)C(CO)O1 (centres undefined)
TGI (HOP-92 NSCLC): > 100 µM | TGI (SN12C renal): > 100 µM | TGI (M19-MEL melanoma): > 100 µM | TGI (K-562 leukemia): > 100 µM | TGI (HOP-62 NSCLC): > 100 µM | TGI (UACC-257 melanoma): > 100 µM | TGI (SNB-78 CNS): > 100 µM | TGI (COLO 205 colon): > 100 µM | TGI (NCI-H226 lung): > 100 µM | TGI (HCT-116 colon): > 100 µM | TGI (SW-620 colon): > 100 µM | TGI (DMS 114 small cell lung): > 100 µM | TGI (IGROV1 ovarian): > 100 µM | TGI (HT29 colon): > 100 µM | TGI (DLD-1 colon): > 100 µM | TGI (HCC-2998 colon): > 100 µM | TGI (KM12 colon): > 100 µM | TGI (SR leukemia): > 100 µM | TGI (KM20L2 colon): > 100 µM | TGI (RXF 393 renal): > 100 µM | TGI (SF-295 CNS): > 100 µM | TGI (M14 melanoma): > 100 µM | TGI (OVCAR-3 ovarian): > 100 µM | TGI (OVCAR-8 ovarian): > 100 µM | TGI (LOX IMVI melanoma): > 100 µM | TGI (OVCAR-4 ovarian): > 100 µM | TGI (HL-60(TB) leukemia): > 100 µM | TGI (ACHN renal): > 100 µM | TGI (TK-10 renal): > 100 µM | TGI (NCI-H23 lung): > 100 µM | TGI (U251 CNS): > 100 µM | TGI (SF-268 CNS): > 100 µM | TGI (A549 NSCLC): > 100 µM | TGI (DMS 273 small cell lung): > 100 µM | TGI (SNB-19 CNS): > 100 µM | TGI (HOP-18 NSCLC): > 100 µM | TGI (UO-31 renal): > 100 µM | TGI (MOLT-4 leukemia): > 100 µM | TGI (EKVX NSCLC): > 100 µM | TGI (XF 498 CNS): > 100 µM | TGI (RPMI-8226 leukemia): > 100 µM | TGI (786-0 renal): > 100 µM | TGI (NCI-H460 lung): > 100 µM | TGI (SK-MEL-2 melanoma): > 100 µM | TGI (SK-OV-3 ovarian): > 100 µM | TGI (MALME-3M melanoma): > 100 µM | TGI (SF-539 CNS): > 100 µM | TGI (OVCAR-5 ovarian): > 100 µM | TGI (SK-MEL-28 melanoma): > 100 µM | TGI (CCRF-CEM leukemia): > 100 µM | TGI (A498 renal): > 100 µM | TGI (HCT-15 colon): > 100 µM | TGI (NCI-H522 lung): > 100 µM | TGI (LXFL 529 NSCLC): > 100 µM

COc1ccc2c(c1)OC(c1ccccc1O)CC2=O (centres undefined)
TGI (SNB-75 CNS): > 100 µM | TGI (SN12C renal): > 100 µM | TGI (K-562 leukemia): > 100 µM | TGI (HOP-62 NSCLC): > 100 µM | TGI (UACC-257 melanoma): > 100 µM | TGI (SNB-78 CNS): 84.8 µM | TGI (HCT-116 colon): > 100 µM | TGI (SW-620 colon): > 100 µM | TGI (HT29 colon): > 100 µM | TGI (DLD-1 colon): > 100 µM | TGI (HCC-2998 colon): > 100 µM | TGI (KM12 colon): > 100 µM | TGI (SK-MEL-5 melanoma): > 100 µM | TGI (CAKI-1 renal): > 100 µM | TGI (KM20L2 colon): > 100 µM | TGI (SF-295 CNS): > 100 µM | TGI (M14 melanoma): > 100 µM | TGI (OVCAR-3 ovarian): 96.8 µM | TGI (OVCAR-8 ovarian): > 100 µM | TGI (OVCAR-4 ovarian): > 100 µM | TGI (ACHN renal): > 100 µM | TGI (TK-10 renal): > 100 µM | TGI (NCI-H23 lung): > 100 µM | TGI (U251 CNS): > 100 µM | TGI (SF-268 CNS): > 100 µM | TGI (A549 NSCLC): > 100 µM | TGI (SNB-19 CNS): > 100 µM | TGI (HOP-18 NSCLC): > 100 µM | TGI (UO-31 renal): 96.8 µM | TGI (MOLT-4 leukemia): > 100 µM | TGI (EKVX NSCLC): > 100 µM | TGI (XF 498 CNS): > 100 µM | TGI (RPMI-8226 leukemia): > 100 µM | TGI (786-0 renal): > 100 µM | TGI (NCI-H460 lung): > 100 µM | TGI (SK-MEL-2 melanoma): 77.5 µM | TGI (MALME-3M melanoma): > 100 µM | TGI (SF-539 CNS): > 100 µM | TGI (OVCAR-5 ovarian): > 100 µM | TGI (SK-MEL-28 melanoma): > 100 µM | TGI (CCRF-CEM leukemia): > 100 µM | TGI (A498 renal): > 100 µM | TGI (HCT-15 colon): > 100 µM | TGI (NCI-H522 lung): 92.8 µM | TGI (LXFL 529 NSCLC): 71.5 µM
